Laboratory results reported in patent US10328164B2, “Radiopharmaceutical products” (GE HEALTHCARE LIMITED, priority 2006, dated 2019).

Conditions: tetrofosmin kit with ascorbic acid radioprotectant, without air addition step; post preparation
Excerpt: The tetrofosmin kit may optionally comprise a radioprotectant, as defined above. […] Med. Comm., 21, 845-849 (2000)] and the Myoview™ Package Instructions.

Question: With CCOCC[PH+](CCOCC)CC[PH+](CCOCC)CCOCC.CCOCC[PH+](CCOCC)CC[PH+](CCOCC)CCOCC.[O]=[99Tc]=[O] [^99mTc-tetrofosmin, ^99mTc(O)2(tetrofosmin)2^+] as the compound, how does the post-reconstitution stability read?
Answer: The post-reconstitution stability was “up to 12 hours”.
